Assay: molar heat capacity at constant pressure; xn = mol fraction of the nth substance listed
Conditions: 101.3 kPa, Liquid, Large sample (1 g) DSC

CC(O)CCO (stereo not drawn) [1,3-butanediol] + CCCCO
molar heat capacity at constant pressure [J/K/mol]
Conditions	x1 = 0.189	x1 = 0.2983	x1 = 0.436	x1 = 0.5902	x1 = 0.7056	x1 = 0.8961	x1 = 1
285.15 K	178.21	183.56	189.77	196.24	200.97	210.06	211.74
285.65 K	178.59	183.85	190.08	196.61	201.4	208.67	212.17
288.15 K	179.92	185.21	191.37	198	202.79	210.1	213.57
290.65 K	181.38	186.6	192.85	199.46	204.22	211.53	215.06
293.15 K	182.92	188.08	194.38	200.87	205.67	213	216.58
295.65 K	184.43	189.64	195.81	202.4	207.15	214.51	218.04
298.15 K	186.01	191.11	197.31	203.91	208.58	216.08	219.62
300.65 K	187.6	192.65	198.88	205.47	210.16	217.6	221.14
303.15 K	189.31	194.35	200.51	207.08	211.81	219.24	222.8
305.65 K	191.04	195.99	202.12	208.6	213.36	220.73	224.37
308.15 K	192.78	197.71	203.81	210.26	215.04	222.49	226.07
310.65 K	194.41	199.34	205.42	211.86	216.58	224.04	227.65
313.15 K	196.3	201.02	207.06	213.43	218.21	225.64	229.24
315.65 K	198.07	202.81	208.71	215.01	219.75	227.18	230.82
318.15 K	199.98	204.63	210.53	216.77	221.57	228.97	232.6
320.65 K	201.89	206.47	212.31	218.48	223.19	230.61	234.14
323.15 K	203.75	208.15	214.02	220.21	224.86	232.26	235.83
325.65 K	205.57	210.02	215.77	221.9	226.54	233.95	237.52
328.15 K	207.42	211.77	217.34	223.44	228.18	235.52	239.08
330.65 K	209.47	213.61	219.1	225.17	229.9	237.35	240.59
333.15 K	211.36	215.41	220.86	226.84	231.42	238.77	242.28
335.65 K	213.23	217.15	222.54	228.47	232.95	240.35	243.86
338.15 K	215.01	218.85	224.14	229.97	234.44	241.71	245.11
340.65 K	217.62	220.95	226.11	231.92	236.35	243.67	247.19
343.15 K	219.25	222.78	227.81	233.46	237.95	245.19	248.62
345.65 K	221.09	224.51	229.58	235.21	239.85	246.7	250.13
348.15 K	223.12	226.46	231.31	236.83	241.5	248.27	251.66
350.65 K	224.98	228.29	232.97	238.43	242.73	249.77	253.24
353.15 K	227.13	230.3	234.85	240.2	244.5	251.52	254.86
